Test system: 494315-158-R-J1-PDC complex spheroid growth, percent test/control
Test: Anticancer human tumor 494315-158-R-J1-PDC patient-derived soft tissue sarcoma cell line growth inhibition [Asc]
Details: for IC50: curve of first compound; for viability, T/C: stronger effect = lower value; active = viability on the fitted dose curve at most 10% of control; inactive = the rest
Procedure, shortened: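 Tumor cells were grown as multicellular spheroids with stromal HUVEC and mesenchymal stem cells and treated singly or in combination. Concentrations fell in half-log steps from the clinical Cmax, or from 10 microM where none was known.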

[1] = second compound 0.01 µM, first compound 0.0316 µM
[2] = second compound 0.01 µM, first compound 0.1 µM
[3] = second compound 0.01 µM, first compound 0.316 µM
[4] = second compound 0.01 µM, first compound 1 µM
[5] = second compound 0.01 µM, first compound 3.16 µM
[6] = second compound 0.01 µM, first compound 10 µM
[7] = second compound 0.0316 µM, first compound 0.0316 µM
[8] = second compound 0.0316 µM, first compound 0.1 µM
[9] = second compound 0.0316 µM, first compound 0.316 µM
[10] = second compound 0.0316 µM, first compound 1 µM
[11] = second compound 0.0316 µM, first compound 3.16 µM
[12] = second compound 0.0316 µM, first compound 10 µM
[13] = second compound 0.1 µM, first compound 0.0316 µM
[14] = second compound 0.1 µM, first compound 0.1 µM
[15] = second compound 0.1 µM, first compound 0.316 µM
[16] = second compound 0.1 µM, first compound 1 µM
[17] = second compound 0.1 µM, first compound 3.16 µM
[18] = second compound 0.1 µM, first compound 10 µM
[19] = second compound 0.316 µM, first compound 0.0316 µM
[20] = second compound 0.316 µM, first compound 0.1 µM
[21] = second compound 0.316 µM, first compound 0.316 µM
[22] = second compound 0.316 µM, first compound 1 µM
[23] = second compound 0.316 µM, first compound 3.16 µM
[24] = second compound 0.316 µM, first compound 10 µM
[25] = second compound 1 µM, first compound 0.0316 µM
[26] = second compound 1 µM, first compound 0.1 µM
[27] = second compound 1 µM, first compound 0.316 µM
[28] = second compound 1 µM, first compound 1 µM
[29] = second compound 1 µM, first compound 3.16 µM
[30] = second compound 1 µM, first compound 10 µM
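Also: compound exposure lasted seven days after spheroids formed for three days.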

C#Cc1c(F)ccc2cc(O)cc(-c3ncc4c(N5CC6CCC(C5)N6)nc(OCC56CCCN5CC(F)C6)nc4c3F)c12 (stereo not given) + CNC(C)C(=O)NC1CN(S(=O)(=O)c2cccc(S(=O)(=O)N3CCC4CCC(C(=O)NC(c5ccccc5)c5ccccc5)N4C(=O)C(NC(=O)C(C)NC)C3)c2)CCC2CCC(C(=O)NC(c3ccccc3)c3ccccc3)N2C1=O
< 0.0316 µM: IC50 (second compound 1 µM)
inactive: viability, T/C [1] 75.8% | viability, T/C [2] 77.5% | viability, T/C [3] 78.4% | viability, T/C [4] 89.3% | viability, T/C [5] 86.8% | viability, T/C [6] 82% | viability, T/C [7] 66.7% | viability, T/C [8] 59.8% | viability, T/C [9] 71.6% | viability, T/C [10] 71.6% | viability, T/C [11] 76.9% | viability, T/C [12] 78% | viability, T/C [13] 53.5% | viability, T/C [14] 65.6% | viability, T/C [15] 65.3% | viability, T/C [16] 65.4% | viability, T/C [17] 72.4% | viability, T/C [18] 70.7% | viability, T/C [19] 47.8% | viability, T/C [20] 48.1% | viability, T/C [21] 52.7% | viability, T/C [22] 51.9% | viability, T/C [23] 51.4% | viability, T/C [24] 69.5% | viability, T/C [25] 37.6% | viability, T/C [26] 43.8% | viability, T/C [27] 39.4% | viability, T/C [28] 45.8% | viability, T/C [29] 55.5% | viability, T/C [30] 55.6%
> 10 µM: IC50 (second compound 0.01 µM) | IC50 (second compound 0.0316 µM) | IC50 (second compound 0.1 µM) | IC50 (second compound 0.316 µM)

C=C(F)C(=O)N1CCN(c2nc(OCC3CCCN3C)nc3c2CCN(c2cccc4cccc(Cl)c24)C3)CC1CC#N (stereo not given) + CNC(C)C(=O)NC1CN(S(=O)(=O)c2cccc(S(=O)(=O)N3CCC4CCC(C(=O)NC(c5ccccc5)c5ccccc5)N4C(=O)C(NC(=O)C(C)NC)C3)c2)CCC2CCC(C(=O)NC(c3ccccc3)c3ccccc3)N2C1=O
1.02 µM: IC50 (second compound 0.1 µM)
inactive: viability, T/C [1] 68.7% | viability, T/C [2] 70.6% | viability, T/C [3] 61.5% | viability, T/C [4] 62.9% | viability, T/C [5] 30.8% | viability, T/C [7] 51.8% | viability, T/C [8] 56.5% | viability, T/C [9] 46.2% | viability, T/C [10] 48.5% | viability, T/C [11] 20.6% | viability, T/C [13] 50.7% | viability, T/C [14] 48% | viability, T/C [15] 52.3% | viability, T/C [16] 51.7% | viability, T/C [17] 18.9% | viability, T/C [19] 44.9% | viability, T/C [20] 43.4% | viability, T/C [21] 38.8% | viability, T/C [22] 45.7% | viability, T/C [23] 12.8% | viability, T/C [25] 34.3% | viability, T/C [26] 39.9% | viability, T/C [27] 36.7% | viability, T/C [28] 39.8% | viability, T/C [29] 8.22%
< 0.0316 µM: IC50 (second compound 0.316 µM) | IC50 (second compound 1 µM)
active: viability, T/C [6] 0.15% | viability, T/C [12] 0.13% | viability, T/C [18] 0.11% | viability, T/C [24] 0.11% | viability, T/C [30] 0.18%
1.56 µM: IC50 (second compound 0.01 µM)
0.513 µM: IC50 (second compound 0.0316 µM)

Source: PubChem BioAssay AID1963420 (Molecular Pharmacology Branch, DTP, NCI, 2024)
